The assay relates to CD2F1 mice, L1210 leukemia ip, survival T/C. Description: NCI In Vivo Anticancer Drug Screen. Data for tumor model L1210 Leukemia (intraperitoneal) in CD2F1 (CDF1) mice. Conditions: higher = longer survival. In short, it runs like this:
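Activity against a transplanted murine tumor was judged by comparing the compound group with a vehicle group. The outcome in the treated animals was divided by that in the controls.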

Setting [1] is: endpoint: mean survival time, dose: 100.0 mg/kg/injection, schedule: Q01DX001 (ip), vehicle: saline.
The mark [2] stands for this setting: endpoint: mean survival time, dose: 200.0 mg/kg/injection, schedule: Q01DX001 (ip), vehicle: saline.
Setting [3] is: endpoint: mean survival time, dose: 400.0 mg/kg/injection, schedule: Q01DX001 (ip), vehicle: saline.
[4] abbreviates: endpoint: mean survival time, dose: 100.0 mg/kg/injection, schedule: Q01DX009 (ip), vehicle: saline with Tween-80.
[5] abbreviates: endpoint: mean survival time, dose: 100.0 mg/kg/injection, schedule: Q04DX003 (ip), vehicle: saline with Tween-80.
[6] abbreviates: endpoint: mean survival time, dose: 200.0 mg/kg/injection, schedule: Q01DX009 (ip), vehicle: saline with Tween-80.
Setting [7] is: endpoint: mean survival time, dose: 200.0 mg/kg/injection, schedule: Q04DX003 (ip), vehicle: saline with Tween-80.
Where [8] appears, read: endpoint: mean survival time, dose: 400.0 mg/kg/injection, schedule: Q01DX009 (ip), vehicle: saline with Tween-80.
[9] abbreviates: endpoint: mean survival time, dose: 400.0 mg/kg/injection, schedule: Q04DX003 (ip), vehicle: saline with Tween-80.
Where [10] appears, read: endpoint: mean survival time, dose: 100.0 mg/kg/injection, schedule: Q01DX001 (ip), vehicle: saline with Tween-80.
[11] abbreviates: endpoint: mean survival time, dose: 200.0 mg/kg/injection, schedule: Q01DX001 (ip), vehicle: saline with Tween-80.
[12] abbreviates: endpoint: mean survival time, dose: 400.0 mg/kg/injection, schedule: Q01DX001 (ip), vehicle: saline with Tween-80.
[13] abbreviates: endpoint: mean survival time, dose: 12.5 mg/kg/injection, schedule: Q01DX009 (ip), vehicle: saline with Tween-80.

Where “and” joins values, the source holds several entries; their conditions need not be identical. Equal entries are not always repeated. Toxic doses and inconclusive results are not listed.

Regarding `O=C(CO)C(O)C(O)C(O)C(O)CO` (stereo unspecified), the T/C under setting [1] is 100 % of control and 105 % of control; the T/C under setting [2] is 102 % of control and 94 % of control; the T/C under setting [3] was 96 % of control.
As for `CC(C)(C)S(=O)O`, the T/C by setting is: under setting [1], 101 % of control; under setting [2], 94 % of control; under setting [3], 100 % of control.
Turning to `CS(=O)(=O)OCCN(CCOS(C)(=O)=O)c1cccc(Cl)c1`, the T/C reads like this: (endpoint: mean survival time, dose: 2.0 mg/kg/injection, schedule: Q01DX010 (ip), vehicle: saline) 112 % of control; (endpoint: mean survival time, dose: 4.0 mg/kg/injection, schedule: Q01DX010 (ip), vehicle: saline) 112 % of control; (endpoint: mean survival time, dose: 4.0 mg/kg/injection, schedule: Q01DX015 (ip), vehicle: saline) 116 % of control; (endpoint: mean survival time, dose: 8.0 mg/kg/injection, schedule: Q01DX010 (ip), vehicle: saline) 150 % of control; (endpoint: mean survival time, dose: 8.0 mg/kg/injection, schedule: Q01DX015 (ip), vehicle: saline) 119 % of control.
Regarding `N#CC1CNC(N)NC1N` (stereo unspecified), the T/C runs as follows: (endpoint: mean survival time, dose: 50.0 mg/kg/injection, schedule: Q01DX009 (ip), vehicle: Klucel (hydroxypropylcellulose) (HPC)) 98 % of control; (endpoint: mean survival time, dose: 100.0 mg/kg/injection, schedule: Q01DX009 (ip), vehicle: Klucel (hydroxypropylcellulose) (HPC)) 91 % of control; (endpoint: mean survival time, dose: 200.0 mg/kg/injection, schedule: Q01DX009 (ip), vehicle: Klucel (hydroxypropylcellulose) (HPC)) 98 % of control.
Turning to `CCN(CC)C(=S)S`, the T/C is 94 % of control (endpoint: mean survival time, dose: 100.0 mg/kg/injection, schedule: Q04DX003 (ip), vehicle: other); 97 % of control (endpoint: mean survival time, dose: 200.0 mg/kg/injection, schedule: Q04DX003 (ip), vehicle: other); 103 % of control (endpoint: mean survival time, dose: 400.0 mg/kg/injection, schedule: Q04DX003 (ip), vehicle: other).
Turning to `COc1cccc2c1CCC1(O)OC(=O)CC21` (stereo unspecified), the T/C reads like this: under setting [1], 98 % of control; under setting [2], 98 % of control; under setting [3], 95 % of control.
Regarding `CC(=O)OCC1OC(n2ccc(-n3cncn3)nc2=O)CC1N=[N+]=[N-]` (stereo unspecified), the T/C was 101 % of control (endpoint: median survival time, dose: 12.5 mg/kg/injection, schedule: Q01DX005 (ip), vehicle: saline with Tween-80); 104 % of control (endpoint: median survival time, dose: 25.0 mg/kg/injection, schedule: Q01DX005 (ip), vehicle: saline with Tween-80); 98 % of control (endpoint: median survival time, dose: 50.0 mg/kg/injection, schedule: Q01DX005 (ip), vehicle: saline with Tween-80); 94 % of control (endpoint: median survival time, dose: 100.0 mg/kg/injection, schedule: Q01DX005 (ip), vehicle: saline with Tween-80); 93 % of control (endpoint: median survival time, dose: 200.0 mg/kg/injection, schedule: Q01DX005 (ip), vehicle: saline with Tween-80).
Consider `Cc1cccc(NC(=O)/C=C/c2ccccc2)c1C`, for which the T/C was 98 % of control (endpoint: mean survival time, dose: 100.0 mg/kg/injection, schedule: Q04DX002 (ip), vehicle: saline with Tween-80); 94 % of control (endpoint: mean survival time, dose: 200.0 mg/kg/injection, schedule: Q04DX002 (ip), vehicle: saline with Tween-80); 94 % of control (endpoint: mean survival time, dose: 400.0 mg/kg/injection, schedule: Q04DX002 (ip), vehicle: saline with Tween-80).
For the compound `CCCN(CCC)CCC(=O)OCC`, the T/C under setting [4] is 97 % of control; the T/C under setting [5] was 97 % of control; the T/C under setting [6] was 97 % of control; the T/C under setting [7] is 114 % of control; the T/C under setting [8] was 100 % of control; the T/C under setting [9] was 100 % of control.
`O=C1C(=O)c2cccc3cccc1c23`: the T/C was 100 % of control under setting [10], 92 % of control under setting [11] and 97 % of control under setting [12].
On to `CCOC(=O)CCCC/C(C)=N\N=C(C(C)C)C(C)C`, for which the T/C reads like this: (endpoint: mean survival time, dose: 75.0 mg/kg/injection, schedule: Q01DX001 (ip), vehicle: other) 103 % of control; (endpoint: mean survival time, dose: 150.0 mg/kg/injection, schedule: Q01DX001 (ip), vehicle: other) 97 % of control; (endpoint: mean survival time, dose: 300.0 mg/kg/injection, schedule: Q01DX001 (ip), vehicle: other) 89 % of control.
In the case of `CCCCC(Sc1nn(C2OC(COC(=O)c3ccccc3)C(OC(=O)c3ccccc3)C2OC(=O)c2ccccc2)c(=O)[nH]c1=O)C(=O)OCC` (stereo unspecified), the T/C reads like this: (endpoint: mean survival time, dose: 12.5 mg/kg/injection, schedule: Q01DX005 (ip), vehicle: distilled water + Tween-80) 101 % of control; (endpoint: mean survival time, dose: 25.0 mg/kg/injection, schedule: Q01DX005 (ip), vehicle: distilled water + Tween-80) 95 % of control; (endpoint: mean survival time, dose: 50.0 mg/kg/injection, schedule: Q01DX005 (ip), vehicle: distilled water + Tween-80) 97 % of control; (endpoint: mean survival time, dose: 100.0 mg/kg/injection, schedule: Q01DX005 (ip), vehicle: distilled water + Tween-80) 95 % of control; (endpoint: mean survival time, dose: 200.0 mg/kg/injection, schedule: Q01DX005 (ip), vehicle: distilled water + Tween-80) 94 % of control.
Regarding `CCOC(=O)CCC(NC(=O)c1ccc(NCc2cnc3nc(N)nc(N)c3c2)cc1)C(=O)OCC` (stereo unspecified), the T/C (endpoint: median survival time, dose: 1.0 mg/kg/injection, schedule: Q01DX005 (ip), vehicle: saline with Tween-80) is 153 % of control and the T/C (endpoint: median survival time, dose: 2.0 mg/kg/injection, schedule: Q01DX005 (ip), vehicle: saline with Tween-80) is 174 % of control.
Consider `O=C(N/N=C/c1ccc2c(c1)OCO2)c1cccc(C(F)(F)F)c1`, for which the T/C by setting is: under setting [13], 95 % of control; (endpoint: mean survival time, dose: 25.0 mg/kg/injection, schedule: Q01DX009 (ip), vehicle: saline with Tween-80) 91 % of control; (endpoint: mean survival time, dose: 50.0 mg/kg/injection, schedule: Q01DX009 (ip), vehicle: saline with Tween-80) 91 % of control and 104 % of control; under setting [6], 89 % of control.
As to `O=C1/C(=N/O)Cc2ccccc21`, the T/C under setting [13] was 97 % of control.
As to `C=C(Br)CNC(=O)NCC(=C)Br`, the T/C runs as follows: under setting [10], 91 % of control; under setting [11], 96 % of control; under setting [12], 101 % of control.
Regarding `O=CNc1ccc([N+](=O)[O-])cc1`, the T/C under setting [4] is 101 % of control, the T/C under setting [6] is 94 % of control and the T/C under setting [8] was 91 % of control.
As to `CCCCOP(=O)(OCCCC)[O][Pb]([CH2]C)([CH2]C)[CH2]C`, the T/C by setting is: (endpoint: mean survival time, dose: 6.25 mg/kg/injection, schedule: Q04DX003 (ip), vehicle: saline with Tween-80) 97 % of control; (endpoint: mean survival time, dose: 12.5 mg/kg/injection, schedule: Q04DX003 (ip), vehicle: saline with Tween-80) 92 % of control.
Turning to `NCCSC(C[N+](=O)[O-])c1ccccc1Cl` (stereo unspecified), the T/C runs as follows: (endpoint: median survival time, dose: 6.25 mg/kg/injection, schedule: Q01DX009 (ip), vehicle: saline) 102 % of control; (endpoint: median survival time, dose: 12.5 mg/kg/injection, schedule: Q01DX009 (ip), vehicle: saline) 107 % of control; (endpoint: median survival time, dose: 25.0 mg/kg/injection, schedule: Q01DX009 (ip), vehicle: saline) 112 % of control; (endpoint: median survival time, dose: 50.0 mg/kg/injection, schedule: Q01DX009 (ip), vehicle: saline) 123 % of control; (endpoint: median survival time, dose: 100.0 mg/kg/injection, schedule: Q01DX009 (ip), vehicle: saline) 123 % of control.
In the case of `O=[N+]([O-])c1ccccc1NCCNCCNc1ccccc1[N+](=O)[O-]`, the T/C under setting [5] was 113 % of control, the T/C under setting [7] is 98 % of control and the T/C under setting [9] is 98 % of control.
`CCN1/C(=C/C(C)=C/c2sc3ccccc3[n+]2CC)Sc2ccccc21`: the T/C was 96 % of control (endpoint: mean survival time, dose: 5.0 mg/kg/injection, schedule: Q01DX001 (ip), vehicle: other); 104 % of control (endpoint: mean survival time, dose: 200.0 micrograms/kg/injection, schedule: Q04DX003 (ip), vehicle: Klucel (hydroxypropylcellulose) (HPC)); 104 % of control (endpoint: mean survival time, dose: 400.0 micrograms/kg/injection, schedule: Q04DX003 (ip), vehicle: Klucel (hydroxypropylcellulose) (HPC)).
Consider `CC1(C)C2CC=C(C[P+](c3ccccc3)(c3ccccc3)c3ccccc3)C1C2` (stereo unspecified), for which the T/C is 109 % of control (endpoint: mean survival time, dose: 5.0 mg/kg/injection, schedule: Q01DX009 (ip), vehicle: saline sonified); 103 % of control (endpoint: mean survival time, dose: 5.0 mg/kg/injection, schedule: Q04DX003 (ip), vehicle: saline); 92 % of control (endpoint: mean survival time, dose: 10.0 mg/kg/injection, schedule: Q04DX003 (ip), vehicle: saline); 87 % of control (endpoint: mean survival time, dose: 20.0 mg/kg/injection, schedule: Q04DX003 (ip), vehicle: saline).
`CCOC(=O)NC1CC(OC(=O)c2ccc(C)cc2)C(COC(=O)c2ccc(C)cc2)O1` (stereo unspecified): the T/C was 95 % of control under setting [4], 92 % of control under setting [6] and 100 % of control under setting [8].
With `CCC12C(=O)C(CC)(C3=C1c1cccc4cccc3c14)C1C(=O)OC(=O)C12` (stereo unspecified), the T/C under setting [5] is 97 % of control, the T/C under setting [7] is 97 % of control and the T/C under setting [9] is 97 % of control.

(Values after PubChem BioAssay AID256 (DTP/NCI, 2004).)
